Test results taken from ChEMBL document CHEMBL4312020, “Design, synthesis and biological evaluation of oseltamivir derivatives containing pyridyl group as potent inhibitors of neuraminidase for influenza A” (Eur J Med Chem, 2020).

Legend:
[1] = molecular target: Neuraminidase (Influenza A virus (A/Puerto Rico/8/1934(H1N1))) (UniProt P03468); settings: Influenza A virus (A/Anhui/1/2005(H5N1)); at 1 µM
[2] = molecular target: Neuraminidase (Influenza A virus (A/Puerto Rico/8/1934(H1N1))) (UniProt P03468); settings: Influenza A virus (A/Anhui/1/2005(H5N1)); at 100 µM
[3] = molecular target: Neuraminidase (Influenza A virus (A/Puerto Rico/8/1934(H1N1)), UniProt P03468); experiment: Inhibition of Influenza A virus A/WSN/1933(H1N1) Neuraminidase using MU-NANA as substrate preincubated for 30 mins followed by substrate addition and measured after 1 hr by spectrofluorometry relative to control
[4] = Inhibition of Influenza A virus A/Taiwan/3446/2002(H3N2) Neuraminidase using MU-NANA as substrate preincubated for 30 mins followed by substrate addition and measured after 1 hr by spectrofluorometry relative to control
in vitro [5] = settings: rat, liver microsomes
[6] = molecular target: Neuraminidase (Influenza A virus (A/Puerto Rico/8/1934(H1N1))) (UniProt P03468); settings: Influenza A virus (A/Anhui/1/2005(H5N1)); at 10 µM
[7] = Stability in human plasma assessed as compound remaining incubated for 60 mins by LC-MS/MS analysis; assay type: ADME, cell-free; settings: read-out: Stability
[8] = Stability in human plasma assessed as compound remaining incubated for 120 mins by LC-MS/MS analysis; assay type: ADME, cell-free; settings: read-out: Stability
[9] = Stability in human plasma assessed as compound remaining incubated for 30 mins by LC-MS/MS analysis; assay type: ADME, cell-free; settings: read-out: Stability
[10] = Stability in human plasma assessed as compound remaining incubated for 0 mins by LC-MS/MS analysis; assay type: ADME, cell-free; settings: read-out: Stability
[11] = Stability in human plasma assessed as compound remaining incubated for 10 mins by LC-MS/MS analysis; assay type: ADME, cell-free; settings: read-out: Stability
[12] = Oral bioavailability in Sprague-Dawley rat at 50 mg/kg measured upto 24 hrs by LC-MS/MS analysis; assay type: ADME, organism-based; settings: in vivo
in vitro [13] = settings: rat, liver microsomes; remark: listed apart in the source
[14] = Cmax in Sprague-Dawley rat at 50 mg/kg, po measured upto 24 hrs by LC-MS/MS analysis; assay type: ADME, organism-based; parameters: dose 50 mg/kg, route oral; settings: in vivo
[15] = MRT in Sprague-Dawley rat at 10 mg/kg, iv measured upto 24 hrs by LC-MS/MS analysis; assay type: ADME, organism-based; settings: in vivo
[16] = MRT in Sprague-Dawley rat at 50 mg/kg, po measured upto 24 hrs by LC-MS/MS analysis; assay type: ADME, organism-based; settings: in vivo
Influenza A virus [17] = experiment: microbe, parasite or virus in culture; settings: A/Puerto Rico/8/1934(H1N1), MDCK, 72 h
[18] = molecular target: Neuraminidase (Influenza A virus (A/Puerto Rico/8/1934(H1N1)), UniProt P03468); parameters: species or system Influenza A virus (A/Anhui/1/2005(H5N1))
Influenza A virus [19] = experiment: microbe, parasite or virus in culture; settings: (A/LiaoNing-ZhenXing/1109/2010(H1N1), MDCK, 72 h
[20] = AUC in Sprague-Dawley rat at 50 mg/kg, po measured upto 24 hrs by LC-MS/MS analysis; assay type: ADME, organism-based; parameters: dose 50 mg/kg, time < 24 hr, route oral; settings: in vivo
[21] = Half life in Sprague-Dawley rat at 50 mg/kg, po measured upto 24 hrs by LC-MS/MS analysis; assay type: ADME, organism-based; settings: in vivo
[22] = Tmax in Sprague-Dawley rat at 50 mg/kg, po measured upto 24 hrs by LC-MS/MS analysis; assay type: ADME, organism-based; settings: in vivo
in vitro [23] = settings: human, liver microsomes
in vitro [24] = settings: human, liver microsomes; remark: listed apart in the source
[25] = Half life in Sprague-Dawley rat at 10 mg/kg, iv measured upto 24 hrs by LC-MS/MS analysis; assay type: ADME, organism-based; settings: in vivo
[26] = Bioavailability in Sprague-Dawley rat at 10 mg/kg, iv measured upto 24 hrs by LC-MS/MS analysis; assay type: ADME, organism-based; settings: in vivo
[27] = AUC in Sprague-Dawley rat at 10 mg/kg, iv measured upto 24 hrs by LC-MS/MS analysis; assay type: ADME, organism-based; parameters: dose 10 mg/kg, time < 24 hr, route intravenous; settings: in vivo
in vitro [28] = settings: dog, MDCK cells

Sequence of Neuraminidase (Influenza A virus (A/Puerto Rico/8/1934(H1N1))) (P03468 whole entry): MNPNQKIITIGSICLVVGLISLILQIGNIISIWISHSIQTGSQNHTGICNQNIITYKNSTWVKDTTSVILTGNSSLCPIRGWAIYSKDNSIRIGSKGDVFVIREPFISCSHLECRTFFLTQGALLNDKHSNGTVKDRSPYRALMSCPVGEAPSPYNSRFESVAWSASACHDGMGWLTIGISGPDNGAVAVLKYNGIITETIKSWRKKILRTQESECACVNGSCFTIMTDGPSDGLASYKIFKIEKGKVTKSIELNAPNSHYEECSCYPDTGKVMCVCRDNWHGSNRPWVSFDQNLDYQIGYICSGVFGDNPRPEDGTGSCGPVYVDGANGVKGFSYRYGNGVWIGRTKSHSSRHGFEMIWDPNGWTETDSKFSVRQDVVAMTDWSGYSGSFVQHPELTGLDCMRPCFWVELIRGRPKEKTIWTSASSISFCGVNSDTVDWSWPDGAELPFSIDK
Sequence of Neuraminidase (Influenza A virus (A/Puerto Rico/8/1934(H1N1)), UniProt P03468) (P03468 whole entry): as above

CCCC(=O)Nc1cc(Br)cnc1N[C@H]1CC(C(=O)O)=C[C@@H](OC(CC)CC)[C@@H]1NC(C)=O
inhibition [1]: 6.8% | inhibition [2]: 41.5%

CCC(CC)O[C@@H]1C=C(C(=O)O)C[C@H](Nc2ccc(NC(=O)c3ccccc3)cn2)[C@H]1NC(C)=O
inhibition [2]: 18.6%

CCC(=O)Nc1ccc(OC)nc1N[C@H]1CC(C(=O)O)=C[C@@H](OC(CC)CC)[C@@H]1NC(C)=O
inhibition [2]: 10.7%

CC(=O)N[C@H]1[C@H]([C@H](O)[C@H](O)CO)OC(C(=O)O)=C[C@@H]1NC(=N)NC(=O)CSc1cccc2ccccc12
IC50 [3]: 0.0023 µM | IC50 [4]: 0.0029 µM

CCCC(=O)Nc1cccnc1N[C@H]1CC(C(=O)O)=C[C@@H](OC(CC)CC)[C@@H]1NC(C)=O
inhibition [2]: 22.1%

O=C(O)Cc1ccccc1Nc1c(Cl)cccc1Cl [DICLOFENAC]
half-life at 1 h (in vitro [5]): 17.1 min

CCC(CC)O[C@@H]1C=C(C(=O)O)C[C@H](Nc2ccc(NC(C)=O)cn2)[C@H]1NC(C)=O
inhibition [1]: 9.6% | inhibition [2]: 38.7%

CCC(CC)O[C@@H]1C=C(C(=O)O)C[C@H](Nc2ncccc2NC(=O)c2ccccc2)[C@H]1NC(C)=O
inhibition [2]: 7.6%

CCC(CC)O[C@@H]1C=C(C(=O)O)C[C@H](Nc2ncc(C)cc2N)[C@H]1NC(C)=O
inhibition [6]: 25.9% | inhibition [2]: 46.8%

CCC(CC)O[C@@H]1C=C(C(=O)O)C[C@H](Nc2ncc(Br)cc2NC(=O)c2ccccc2)[C@H]1NC(C)=O
inhibition [2]: 36.9%

CC(C)[N+](C)(CCOC(=O)C1c2ccccc2Oc2ccccc21)C(C)C [PROPANTHELINE BROMIDE]
remaining at 1 h [7]: 10.1% | remaining at 2 h [8]: 0.7% | remaining at 0.5 h [9]: 34.8% | remaining at 0 h [10]: 100% | remaining at 10 min [11]: 68.2%

CCC(CC)O[C@@H]1C=C(C(=O)O)C[C@H](Nc2nc(OC)ccc2NC(C)=O)[C@H]1NC(C)=O
inhibition [1]: 10.1% | inhibition [2]: 75.7%

CCC(CC)O[C@@H]1C=C(C(=O)O)C[C@H](Nc2ncccc2N)[C@H]1NC(C)=O
bioavailability [12]: 1.58% | remaining at 1 h (in vitro [13]): 85.5% | remaining at 1 h [7]: 113% | Cmax [14]: 253 ng/mL | MRT [15]: 11.4 min | MRT [16]: 127 min | EC50 (Influenza A virus [17]): 12.7 µM | IC50 [18]: 0.32 µM | EC50 (Influenza A virus [19]): 14.3 µM | half-life at 1 h (in vitro [5]): > 145 min | remaining at 2 h [8]: 102% | AUC at 24 h [20]: 358 ng·h/mL | remaining at 0.5 h [9]: 103% | half-life [21]: 94.2 min | Tmax [22]: 19.8 min | remaining at 1 h (in vitro [23]): 87.5% | inhibition [6]: 87.6% | half-life at 1 h (in vitro [24]): > 145 min | remaining at 0 h [10]: 100% | remaining at 10 min [11]: 95.1% | inhibition [2]: 92.4% | half-life [25]: 30.6 min | F [26]: 100% | AUC at 24 h [27]: 4540 ng·h/mL

CCC(CC)O[C@@H]1C=C(C(=O)O)C[C@H](Nc2nccc(C)c2N)[C@H]1NC(C)=O
inhibition [6]: 10.7% | inhibition [2]: 24.2%

CCC(CC)O[C@@H]1C=C(C(=O)O)C[C@H](Nc2ncc(Br)cc2[N+](=O)[O-])[C@H]1NC(C)=O
inhibition [2]: 54.3%

CCC(CC)O[C@@H]1C=C(C(=O)O)C[C@H](Nc2ccc(N)cn2)[C@H]1NC(C)=O
inhibition [6]: 30% | inhibition [2]: 67.7%

CCC(CC)O[C@@H]1C=C(C(=O)O)C[C@H](Nc2nc(OC)ccc2NC(=O)c2ccccc2)[C@H]1NC(C)=O
inhibition [2]: 70.6%

CCC(CC)O[C@@H]1C=C(C(=O)O)C[C@H](N)[C@H]1NC(C)=O [OSELTAMIVIR CARBOXYLATE]
EC50 (Influenza A virus [17]): 2.49 µM | EC50 (Influenza A virus [19]): 67.5 µM | CC50 at 72 h (in vitro [28]): > 1000 µM

CCC(CC)O[C@@H]1C=C(C(=O)O)C[C@H](Nc2ncccc2[N+](=O)[O-])[C@H]1NC(C)=O
inhibition [1]: 9.1% | inhibition [2]: 76.1%

CCC(CC)O[C@@H]1C=C(C(=O)O)C[C@H](Nc2ncc(Br)cc2NC(C)=O)[C@H]1NC(C)=O
inhibition [2]: 46.7%

CCC(CC)O[C@@H]1C=C(C(=O)O)C[C@H](Nc2ncc(Br)cc2NC(=O)C(C)C)[C@H]1NC(C)=O
inhibition [1]: 19.1% | inhibition [2]: 79.3%

CCC(CC)O[C@@H]1C=C(C(=O)O)C[C@H](Nc2ncc(Br)cc2N)[C@H]1NC(C)=O
inhibition [6]: 26.8% | inhibition [2]: 55.9%

CCCC(=O)Nc1ccc(OC)nc1N[C@H]1CC(C(=O)O)=C[C@@H](OC(CC)CC)[C@@H]1NC(C)=O
inhibition [1]: 16% | inhibition [2]: 76.3%

CCC(CC)O[C@@H]1C=C(C(=O)O)C[C@H](Nc2nc(OC)ccc2N)[C@H]1NC(C)=O
inhibition [6]: 41.3% | inhibition [2]: 81.4%

CCC(CC)O[C@@H]1C=C(C(=O)O)C[C@H](Nc2ccc([N+](=O)[O-])cn2)[C@H]1NC(C)=O
inhibition [1]: 8.9% | inhibition [2]: 87.1%

CCC(CC)O[C@@H]1C=C(C(=O)O)C[C@H](Nc2nc(OC)ccc2[N+](=O)[O-])[C@H]1NC(C)=O
inhibition [1]: 27.9% | inhibition [2]: 82.9%
